From ChEMBL document CHEMBL5046315, “CRCM5484: A BET-BDII Selective Compound with Differential Anti-leukemic Drug Modulation” (J Med Chem, 2022)
pIC50: −log10 of the molar value. Activity calls are given as the source filed them. No cut-off for these calls is given here.

Key:
[1] = tested on: U-937; experiment: Potentiation of palbociclib-induced antileukemic activity against human U-937 cells at 4.3 uM in presence of bone-marrow derived stromal cell-conditioned medium; assay type: functional, cell-based
[2] = tested on: MOLM-14; experiment: Potentiation of AT9283-induced antileukemic activity against human MOLM-14 cells at 4.3 uM in presence of bone-marrow derived stromal cell-conditioned medium; assay type: functional, cell-based
[3] = tested on: CCRF-CEM; experiment: Potentiation of crenolatinib-induced antileukemic activity against human CCRF-CEM cells at 4.3 uM in presence of bone-marrow derived stromal cell-conditioned medium; assay type: functional, cell-based
[4] = tested on: MOLM-14; experiment: Potentiation of -mastinib -induced antileukemic activity against human MOLM-14 cells at 4.3 uM in presence of bone-marrow derived stromal cell-conditioned medium; assay type: functional, cell-based
[5] = tested on: U-937; experiment: Potentiation of daunorubicine-induced antileukemic activity against human U-937 cells at 4.3 uM in presence of bone-marrow derived stromal cell-conditioned medium; assay type: functional, cell-based
[6] = tested on: CCRF-CEM; experiment: Potentiation of hydroxychloroquine-induced antileukemic activity against human CCRF-CEM cells at 4.3 uM in presence of bone-marrow derived stromal cell-conditioned medium; assay type: functional, cell-based
[7] = tested on: MOLM-14; experiment: Potentiation of EPZ5676-induced antileukemic activity against human MOLM-14 cells at 4.3 uM in presence of bone-marrow derived stromal cell-conditioned medium; assay type: functional, cell-based
[8] = biological target: Bromodomain-containing protein 4 (Homo sapiens, UniProt O60885); experiment: Inhibition of BRD4-BD2 (unknown origin) incubated for 6 hrs by HTRF method
[9] = tested on: CCRF-CEM; experiment: Potentiation of etoposide-induced antileukemic activity against human CCRF-CEM cells at 4.3 uM in presence of bone-marrow derived stromal cell-conditioned medium; assay type: functional, cell-based
[10] = tested on: U-937; experiment: Potentiation of etoposide-induced antileukemic activity against human U-937 cells at 4.3 uM in presence of bone-marrow derived stromal cell-conditioned medium; assay type: functional, cell-based
[11] = biological target: Bromodomain-containing protein 2 (Homo sapiens, UniProt P25440); experiment: Inhibition of human partial length BRD2-BD2 (E348 to D455 residues) expressed in bacterial system at 1 uM by BROMOscan method relative to control
[12] = tested on: U-937; experiment: Potentiation of dasatinib-induced antileukemic activity against human U-937 cells at 4.3 uM in presence of bone-marrow derived stromal cell-conditioned medium; assay type: functional, cell-based
[13] = tested on: U-937; experiment: Potentiation of prima1-induced antileukemic activity against human U-937 cells at 4.3 uM in presence of bone-marrow derived stromal cell-conditioned medium; assay type: functional, cell-based
[14] = biological target: T1, Bromodomain-containing protein 3 (Homo sapiens, UniProt Q15059); experiment: Inhibition of human partial length BRD3-BD2 (G306 to P416 residues) expressed in bacterial system at 1 uM by BROMOscan method relative to control
Target sequence in this assay (Q15059 2-726 limits assumed): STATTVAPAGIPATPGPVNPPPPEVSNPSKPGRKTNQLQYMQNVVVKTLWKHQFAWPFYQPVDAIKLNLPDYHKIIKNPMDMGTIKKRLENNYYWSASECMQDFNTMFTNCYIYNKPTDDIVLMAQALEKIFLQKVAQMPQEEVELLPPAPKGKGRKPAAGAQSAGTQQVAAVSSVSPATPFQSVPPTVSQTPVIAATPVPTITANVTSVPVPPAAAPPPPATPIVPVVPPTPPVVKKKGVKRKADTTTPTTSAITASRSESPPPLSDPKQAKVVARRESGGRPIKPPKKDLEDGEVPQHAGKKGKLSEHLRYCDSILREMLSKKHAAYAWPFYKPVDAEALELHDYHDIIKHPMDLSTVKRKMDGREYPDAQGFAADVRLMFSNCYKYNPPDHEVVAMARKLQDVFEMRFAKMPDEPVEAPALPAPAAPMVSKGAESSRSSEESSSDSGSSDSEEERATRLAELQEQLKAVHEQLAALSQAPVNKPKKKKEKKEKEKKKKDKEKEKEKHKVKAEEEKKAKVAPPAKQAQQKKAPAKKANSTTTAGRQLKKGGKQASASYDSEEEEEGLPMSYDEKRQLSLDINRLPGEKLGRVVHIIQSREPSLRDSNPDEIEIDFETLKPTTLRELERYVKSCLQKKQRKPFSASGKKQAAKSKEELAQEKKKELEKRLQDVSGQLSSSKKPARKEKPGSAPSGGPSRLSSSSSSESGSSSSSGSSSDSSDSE

[15] = tested on: MOLM-14; experiment: Potentiation of niotinib-induced antileukemic activity against human MOLM-14 cells at 4.3 uM in presence of bone-marrow derived stromal cell-conditioned medium; assay type: functional, cell-based
[16] = tested on: MOLM-14; experiment: Potentiation of vermurafenib-induced antileukemic activity against human MOLM-14 cells at 4.3 uM in presence of bone-marrow derived stromal cell-conditioned medium; assay type: functional, cell-based
[17] = tested on: MOLM-14; experiment: Potentiation of sorafenib-induced antileukemic activity against human MOLM-14 cells at 4.3 uM in presence of bone-marrow derived stromal cell-conditioned medium; assay type: functional, cell-based
[18] = tested on: U-937; experiment: Potentiation of GSK126-induced antileukemic activity against human U-937 cells at 4.3 uM in presence of bone-marrow derived stromal cell-conditioned medium; assay type: functional, cell-based
[19] = tested on: U-937; experiment: Potentiation of hydroxychloroquine-induced antileukemic activity against human U-937 cells at 4.3 uM in presence of bone-marrow derived stromal cell-conditioned medium; assay type: functional, cell-based
[20] = tested on: MOLM-14; experiment: Potentiation of OTX015-induced antileukemic activity against human MOLM-14 cells at 4.3 uM in presence of bone-marrow derived stromal cell-conditioned medium; assay type: functional, cell-based
[21] = tested on: U-937; experiment: Potentiation of docetaxel-induced antileukemic activity against human U-937 cells at 4.3 uM in presence of bone-marrow derived stromal cell-conditioned medium; assay type: functional, cell-based
[22] = tested on: U-937; experiment: Potentiation of olaparid-induced antileukemic activity against human U-937 cells at 4.3 uM in presence of bone-marrow derived stromal cell-conditioned medium; assay type: functional, cell-based
[23] = tested on: CCRF-CEM; experiment: Potentiation of nelarabine-induced antileukemic activity against human CCRF-CEM cells at 4.3 uM in presence of bone-marrow derived stromal cell-conditioned medium; assay type: functional, cell-based
[24] = tested on: MOLM-14; experiment: Potentiation of palbociclib-induced antileukemic activity against human MOLM-14 cells at 4.3 uM in presence of bone-marrow derived stromal cell-conditioned medium; assay type: functional, cell-based
[25] = tested on: CCRF-CEM; experiment: Potentiation of sunitinib-induced antileukemic activity against human CCRF-CEM cells at 4.3 uM in presence of bone-marrow derived stromal cell-conditioned medium; assay type: functional, cell-based
[26] = tested on: MOLM-14; experiment: Potentiation of venetoclax-induced antileukemic activity against human MOLM-14 cells at 4.3 uM in presence of bone-marrow derived stromal cell-conditioned medium; assay type: functional, cell-based
[27] = tested on: MOLM-14; experiment: Potentiation of lapatinib-induced antileukemic activity against human MOLM-14 cells at 4.3 uM in presence of bone-marrow derived stromal cell-conditioned medium; assay type: functional, cell-based
[28] = tested on: U-937; experiment: Potentiation of nelarabine-induced antileukemic activity against human U-937 cells at 4.3 uM in presence of bone-marrow derived stromal cell-conditioned medium; assay type: functional, cell-based
[29] = tested on: U-937; experiment: Potentiation of carfilzomib-induced antileukemic activity against human U-937 cells at 4.3 uM in presence of bone-marrow derived stromal cell-conditioned medium; assay type: functional, cell-based
[30] = tested on: U-937; experiment: Potentiation of bortezomib-induced antileukemic activity against human U-937 cells at 4.3 uM in presence of bone-marrow derived stromal cell-conditioned medium; assay type: functional, cell-based
[31] = tested on: CCRF-CEM; experiment: Potentiation of ruxolitinib-induced antileukemic activity against human CCRF-CEM cells at 4.3 uM in presence of bone-marrow derived stromal cell-conditioned medium; assay type: functional, cell-based
[32] = biological target: T1, Bromodomain-containing protein 3; experiment: Inhibition of BRD3-BD1 domain (unknown origin) incubated for 6 hrs by HTRF method
Target sequence in this assay (Q15059 whole entry, the tested form may be a part): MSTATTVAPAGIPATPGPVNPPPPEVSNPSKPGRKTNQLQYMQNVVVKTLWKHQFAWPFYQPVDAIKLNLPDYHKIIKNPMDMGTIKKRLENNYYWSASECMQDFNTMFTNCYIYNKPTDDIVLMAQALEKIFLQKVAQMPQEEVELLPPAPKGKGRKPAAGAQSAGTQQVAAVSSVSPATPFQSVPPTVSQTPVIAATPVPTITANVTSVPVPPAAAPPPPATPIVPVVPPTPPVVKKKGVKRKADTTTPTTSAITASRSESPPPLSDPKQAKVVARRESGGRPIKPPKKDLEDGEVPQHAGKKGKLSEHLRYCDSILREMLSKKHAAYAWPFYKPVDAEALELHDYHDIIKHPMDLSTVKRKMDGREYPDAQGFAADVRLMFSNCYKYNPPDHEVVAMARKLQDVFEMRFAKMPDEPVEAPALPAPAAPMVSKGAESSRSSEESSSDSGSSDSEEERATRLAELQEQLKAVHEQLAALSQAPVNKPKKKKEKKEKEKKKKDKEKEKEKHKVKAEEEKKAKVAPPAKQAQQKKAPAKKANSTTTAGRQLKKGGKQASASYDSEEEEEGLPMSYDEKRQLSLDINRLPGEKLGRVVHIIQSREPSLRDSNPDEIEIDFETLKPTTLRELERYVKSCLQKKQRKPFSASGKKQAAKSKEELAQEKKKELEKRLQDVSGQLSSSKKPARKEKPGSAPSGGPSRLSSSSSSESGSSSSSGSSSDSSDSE

[33] = tested on: CCRF-CEM; experiment: Potentiation of docetaxel-induced antileukemic activity against human CCRF-CEM cells at 4.3 uM in presence of bone-marrow derived stromal cell-conditioned medium; assay type: functional, cell-based
[34] = tested on: U-937; experiment: Potentiation of tretinoin-induced antileukemic activity against human U-937 cells at 4.3 uM in presence of bone-marrow derived stromal cell-conditioned medium; assay type: functional, cell-based
[35] = tested on: U-937; experiment: Potentiation of 17AAG-induced antileukemic activity against human U-937 cells at 4.3 uM in presence of bone-marrow derived stromal cell-conditioned medium; assay type: functional, cell-based
[36] = tested on: MOLM-14; experiment: Potentiation of trametinib-induced antileukemic activity against human MOLM-14 cells at 4.3 uM in presence of bone-marrow derived stromal cell-conditioned medium; assay type: functional, cell-based
[37] = tested on: CCRF-CEM; experiment: Potentiation of azacitidine-induced antileukemic activity against human CCRF-CEM cells at 4.3 uM in presence of bone-marrow derived stromal cell-conditioned medium; assay type: functional, cell-based
[38] = tested on: CCRF-CEM; experiment: Potentiation of bleomycine-induced antileukemic activity against human CCRF-CEM cells at 4.3 uM in presence of bone-marrow derived stromal cell-conditioned medium; assay type: functional, cell-based
[39] = tested on: U-937; experiment: Potentiation of tipifarnib-induced antileukemic activity against human U-937 cells at 4.3 uM in presence of bone-marrow derived stromal cell-conditioned medium; assay type: functional, cell-based
[40] = tested on: CCRF-CEM; experiment: Potentiation of dasatinib-induced antileukemic activity against human CCRF-CEM cells at 4.3 uM in presence of bone-marrow derived stromal cell-conditioned medium; assay type: functional, cell-based
[41] = tested on: CCRF-CEM; experiment: Potentiation of quizartinib-induced antileukemic activity against human CCRF-CEM cells at 4.3 uM in presence of bone-marrow derived stromal cell-conditioned medium; assay type: functional, cell-based

Chain of Bromodomain-containing protein 2 (P25440 whole entry, looked up, the tested form may be a part): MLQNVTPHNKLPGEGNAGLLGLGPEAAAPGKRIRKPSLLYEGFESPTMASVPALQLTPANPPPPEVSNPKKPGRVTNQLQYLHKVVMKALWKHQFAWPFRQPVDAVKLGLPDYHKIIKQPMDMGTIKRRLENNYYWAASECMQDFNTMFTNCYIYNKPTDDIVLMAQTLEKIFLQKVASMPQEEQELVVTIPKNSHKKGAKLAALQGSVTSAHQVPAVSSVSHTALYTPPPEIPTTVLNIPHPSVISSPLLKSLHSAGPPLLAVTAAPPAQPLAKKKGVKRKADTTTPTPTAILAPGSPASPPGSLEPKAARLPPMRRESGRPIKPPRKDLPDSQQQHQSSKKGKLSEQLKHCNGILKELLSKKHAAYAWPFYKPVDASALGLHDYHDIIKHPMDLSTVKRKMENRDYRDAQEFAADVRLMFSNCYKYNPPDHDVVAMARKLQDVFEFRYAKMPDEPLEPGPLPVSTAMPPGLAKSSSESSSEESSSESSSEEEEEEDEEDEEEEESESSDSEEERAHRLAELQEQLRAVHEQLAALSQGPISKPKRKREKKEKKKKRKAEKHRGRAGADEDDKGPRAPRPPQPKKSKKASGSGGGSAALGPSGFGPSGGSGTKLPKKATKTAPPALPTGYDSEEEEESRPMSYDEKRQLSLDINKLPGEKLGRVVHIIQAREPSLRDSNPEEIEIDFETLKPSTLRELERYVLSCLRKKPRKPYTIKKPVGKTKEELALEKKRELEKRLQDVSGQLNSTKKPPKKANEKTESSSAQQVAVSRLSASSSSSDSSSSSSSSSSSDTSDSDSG

`CC(=O)N1CCc2c(sc3nc(SCC(=O)Nc4cccnc4C)n(Cc4ccco4)c(=O)c23)C1` was tested, and the Activity [1] was “inactive”, the Activity [2] was “inactive” and the Activity [3] was “inactive”. For the same molecule, the Activity [4] was “inactive”, the Activity [5] was “inactive” and the Activity [6] was “inactive”. For the same molecule, the Activity [7] was “inactive”, the pIC50 [8] was 6.89 and the Activity [9] was “inactive”. For the same molecule, the Activity [10] was “inactive”, the inhibition [11] was 37% and the Activity [12] was “inactive”. For the same molecule, the Activity [13] was “inactive”, the inhibition [14] was 36% and the Activity [15] was “inactive”. The Activity [16] was “inactive”, the Activity [17] was “inactive” and the Activity [18] was “inactive”. For the same molecule, the Activity [19] was “inactive”, the Activity [20] was “inactive” and the Activity [21] was “inactive”. The Activity [22] was “inactive”, the Activity [23] was “inactive” and the Activity [24] was “inactive”. The Activity [25] was “inactive”, the Activity [26] was “inactive” and the Activity [27] was “inactive”. For the same molecule, the Activity [28] was “inactive”, the Activity [29] was “inactive” and the Activity [30] was “inactive”. The Activity [31] was “inactive”, the pIC50 [32] was 5.02 and the Activity [33] was “inactive”. For the same molecule, the Activity [34] was “inactive”, the Activity [35] was “inactive” and the Activity [36] was “inactive”. The Activity [37] was “inactive”, the Activity [38] was “inactive” and the Activity [39] was “inactive”. For the same molecule, the Activity [40] was “inactive” and the Activity [41] was “inactive”.
